Key:
Format in all cases: in vivo
[1] = tested on: smallflower flatsedge (Cyperus difformis); assay: Test B flooded paddy test; details: Rate 1000 g/ha, scale of 0 to 100 where 0 is no effect and 100 is complete control, visually evaluated after 13 to 15 days
Summary of the method: (§1)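 2-leaf plants, flooded paddy; greenhouse 13–15 d post-treatment; visual rating vs controls, 0–100 scale (0 = no effect, 100 = complete control); dash = no result.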

[2] = tested on: barnyardgrass (Echinochloa crus-galli); assay: Test B flooded paddy test; details: Rate 1000 g/ha, scale of 0 to 100 where 0 is no effect and 100 is complete control, visually evaluated after 13 to 15 days
Summary of the method: as §1

[3] = tested on: rice (Oryza saliva); assay: Test B flooded paddy test; details: Rate 1000 g/ha, scale of 0 to 100 where 0 is no effect and 100 is complete control, visually evaluated after 13 to 15 days
Summary of the method: as §1

[4] = tested on: duck salad (Heteranthera limosa); assay: Test B flooded paddy test; details: Rate 1000 g/ha, scale of 0 to 100 where 0 is no effect and 100 is complete control, visually evaluated after 13 to 15 days
Summary of the method: as §1

[5] = tested on: lambsquarters (Chenopodium album); assay: Test B postemergence; details: 13 to 15 days
Summary of the method: (§2)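 Pre: seeded pots sprayed, chemical in non-phytotoxic solvent/surfactant mix. Post: plants 2–18 cm, 1–4 leaf, same formulation. Greenhouse 13–15 d; visual % control vs untreated, 0–100 scale.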

[6] = tested on: wheat (Triticum aestivum); assay: Test B postemergence; details: 13 to 15 days
Summary of the method: as §2

[7] = tested on: barnyardgrass (Echinochloa crus-galli); assay: Test B postemergence; details: 13 to 15 days
Summary of the method: as §2

[8] = tested on: corn (Zea mays); assay: Test B postemergence; details: 13 to 15 days
Summary of the method: as §2

[9] = tested on: wild oat (Avena fatua); assay: Test B postemergence; details: 13 to 15 days
Summary of the method: as §2

[10] = tested on: morning glory (Ipomoea hederacea); assay: Test B postemergence; details: 13 to 15 days
Summary of the method: as §2

[11] = tested on: crabgrass (Digitaria sanguinalis); assay: Test B postemergence; details: 13 to 15 days
Summary of the method: as §2

[12] = tested on: cocklebur (Xanthium strumarium); assay: Test B postemergence; details: 13 to 15 days
Summary of the method: as §2

[13] = tested on: pigweed (Amaranthus retroflexus); assay: Test B postemergence; details: 13 to 15 days
Summary of the method: as §2

[14] = tested on: blackgrass (Alopecurus myosuroides); assay: Test B postemergence; details: 13 to 15 days
Summary of the method: as §2

[15] = tested on: Surinam grass (Brachiaria decumbens); assay: Test B postemergence; details: 13 to 15 days
Summary of the method: as §2

[16] = tested on: velvetleaf (Abutilon theophrasti); assay: Test B postemergence; details: 13 to 15 days
Summary of the method: as §2

[17] = tested on: giant foxtail (Setaria faberii); assay: Test B postemergence; details: 13 to 15 days
Summary of the method: as §2

[18] = tested on: lambsquarters (Chenopodium album); assay: Test B preemergence
Summary of the method: as §2

[19] = tested on: barnyardgrass (Echinochloa crus-galli); assay: Test B preemergence
Summary of the method: as §2

[20] = tested on: corn (Zea mays); assay: Test B preemergence
Summary of the method: as §2

[21] = tested on: morning glory (Ipomoea hederacea); assay: Test B preemergence
Summary of the method: as §2

[22] = tested on: crabgrass (Digitaria sanguinalis); assay: Test B preemergence
Summary of the method: as §2

[23] = tested on: cocklebur (Xanthium strumarium); assay: Test B preemergence; details: Preemergence, Rate 500 g/ha; scale 0 to 100, 0 no effect, 100 complete control
Summary of the method: as §2

[24] = tested on: pigweed (Amaranthus retroflexus); assay: Test B preemergence
Summary of the method: as §2

[25] = tested on: rice (Oryza saliva); assay: Test B preemergence
Summary of the method: as §2

[26] = tested on: Surinam grass (Brachiaria decumbens); assay: Test B preemergence
Summary of the method: as §2

[27] = tested on: velvetleaf (Abutilon theophrasti); assay: Test B preemergence
Summary of the method: as §2

[28] = tested on: giant foxtail (Setaria faberii); assay: Test B preemergence
Summary of the method: as §2

[29] = tested on: smallflower flatsedge (Cyperus difformis); assay: Test C flooded paddy test; details: for Flatsedge plant response rating: Flooded Paddy, scale 0 to 100, 0 no effect, 100 complete control; for Plant response rating, Flatsedge: flooded paddy test, scale 0 to 100 (0 no effect, 100 complete control)
Summary of the method: (§3)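 Plants were grown to the 2-leaf stage under flooded paddy conditions and treated. They were then kept in a greenhouse for 12 to 14 days and visually rated against untreated controls on a 0–100 scale, where 0 is no effect and 100 is complete control.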

[30] = tested on: barnyardgrass (Echinochloa crus-galli); assay: Test C flooded paddy test; details: for Barnyardgrass plant response rating: Flooded Paddy, scale 0 to 100, 0 no effect, 100 complete control; for Plant response rating, Barnyardgrass: flooded paddy test, scale 0 to 100 (0 no effect, 100 complete control)
Summary of the method: as §3

[31] = tested on: rice (Oryza saliva); assay: Test C flooded paddy test; details: for Rice plant response rating: Flooded Paddy, scale 0 to 100, 0 no effect, 100 complete control; for Plant response rating, Rice: flooded paddy test, scale 0 to 100 (0 no effect, 100 complete control)
Summary of the method: as §3

[32] = tested on: duck salad (Heteranthera limosa); assay: Test C flooded paddy test; details: for Ducksalad plant response rating: Flooded Paddy, scale 0 to 100, 0 no effect, 100 complete control; for Plant response rating, Ducksalad: flooded paddy test, scale 0 to 100 (0 no effect, 100 complete control)
Summary of the method: as §3

[33] = Rate 125 g/ha, scale 0 (no effect) to 100 (complete control)
[34] = Rate 500 g/ha, scale 0 to 100, 0 is no effect, 100 is complete control
[35] = Preemergence, Rate 500 g/ha, scale 0 to 100, 0 no effect, 100 complete control
[36] = preemergence, Rate 125 g/ha, scale of 0 to 100 where 0 is no effect and 100 is complete control, 13 to 15 days

## Cc1cc(N2CCC(n3ccc(C(C)(C)C)n3)C2=O)ccc1Cl (stereo not shown) [Compound 53]
[1]
  Plant response rating, Flatsedge: 90
[2]
  Plant response rating, Barnyardgrass: 100
[3]
  Plant response rating, Rice: 20
[4]
  Plant response rating, Ducksalad: 30
[5]; [33]
  Plant response rating, Lambsquarters: 40
[5]; [34]
  Plant response rating, Lambsquarters: 80
[6]; [33]
  Plant response rating, Wheat: 0
[6]; [34]
  Plant response rating, Wheat: 0
[7]; [33]
  Plant response rating, Barnyardgrass: 0
[7]; [34]
  Plant response rating, Barnyardgrass: 0
[8]; [33]
  Plant response rating, Corn: 0
[8]; [34]
  Plant response rating, Corn: 10
[9]; [33]
  Plant response rating, Wild Oat: 0
[9]; [34]
  Plant response rating, Wild Oat: 0
[10]; [33]
  Plant response rating, Morningglory: 0
[10]; [34]
  Plant response rating, Morningglory: 10
[11]; [33]
  Plant response rating, Crabgrass: 0
[11]; [34]
  Plant response rating, Crabgrass: 0
[12]; [33]
  Plant response rating, Cocklebur: 0
[12]; [34]
  Plant response rating, Cocklebur: 0
[13]; [33]
  Plant response rating, Pigweed: 80
[13]; [34]
  Plant response rating, Pigweed: 90
[14]; [33]
  Plant response rating, Blackgrass: 0
[14]; [34]
  Plant response rating, Blackgrass: 0
[15]; [33]
  Plant response rating, Surinam grass: 0
[15]; [34]
  Plant response rating, Surinam grass: 0
[16]; [33]
  Plant response rating, Velvetleaf: 0
[16]; [34]
  Plant response rating, Velvetleaf: 0
[17]; [33]
  Plant response rating, Foxtail, Giant: 0
[17]; [34]
  Plant response rating, Foxtail, Giant: 0
[18]; [35]
  Plant response rating, Lambsquarters: 100
[18]; [36]
  Plant response rating, Lambsquarters: 100
[19]; [35]
  Plant response rating, Barnyardgrass: 90
[19]; [36]
  Plant response rating, Barnyardgrass: 0
[20]; [35]
  Plant response rating, Corn: 0
[20]; [36]
  Plant response rating, Corn: 0
[21]; [35]
  Plant response rating, Morningglory: 0
[21]; [36]
  Plant response rating, Morningglory: 0
[22]; [35]
  Plant response rating, Crabgrass: 0
[22]; [36]
  Plant response rating, Crabgrass: 0
[23]
  Plant response rating, Cocklebur: 0
[24]; [35]
  Plant response rating, Pigweed: 100
[24]; [36]
  Plant response rating, Pigweed: 100
[25]; [35]
  Plant response rating, Rice: 0
[25]; [36]
  Plant response rating, Rice: 0
[26]; [35]
  Plant response rating, Surinam grass: 0
[26]; [36]
  Plant response rating, Surinam grass: 0
[27]; [35]
  Plant response rating, Velvetleaf: 0
[27]; [36]
  Plant response rating, Velvetleaf: 0
[28]; [35]
  Plant response rating, Foxtail, Giant: 0
[28]; [36]
  Plant response rating, Foxtail, Giant: 0
[29]; Rate 250 g/ha
  Flatsedge plant response rating: 90
[29]; Rate 500 g/ha
  Flatsedge plant response rating: 100
[29]; Rate 62 g/ha
  Plant response rating, Flatsedge: 80
[29]; Rate 125 g/ha
  Plant response rating, Flatsedge: 90
[30]; Rate 250 g/ha
  Barnyardgrass plant response rating: 70
[30]; Rate 500 g/ha
  Barnyardgrass plant response rating: 100
[30]; Rate 62 g/ha
  Plant response rating, Barnyardgrass: 20
[30]; Rate 125 g/ha
  Plant response rating, Barnyardgrass: 30
[31]; Rate 250 g/ha
  Rice plant response rating: 0
[31]; Rate 500 g/ha
  Rice plant response rating: 0
[31]; Rate 62 g/ha
  Plant response rating, Rice: 0
[31]; Rate 125 g/ha
  Plant response rating, Rice: 0
[32]; Rate 250 g/ha
  Ducksalad plant response rating: 50
[32]; Rate 500 g/ha
  Ducksalad plant response rating: 60
[32]; Rate 62 g/ha
  Plant response rating, Ducksalad: 20
[32]; Rate 125 g/ha
  Plant response rating, Ducksalad: 40

Source: patent publication US7138361B2, “Herbicidal heterocycles” (E. I. du Pont de Nemours and Company, priority 2000, dated 2006)
